Data from article PMC9583092 (ACS Omega, 2022).
Where “and” joins values, the source holds several entries; their conditions need not be identical. Identical values can stand only once. Like-named read-outs stand apart in the source and are kept apart here. Non-standard residues stand in square brackets, D forms with d. Residues, ends and D or L forms follow the SMILES beside them. *: point of attachment. Gly(N(CH2)2(3-indolyl)) = O=C(O)CNCCc1c[nH]c2ccccc12; Gly(Nα-4-Cl-benzyl) = O=C(O)CNCc1ccc(Cl)cc1; N(4-Br-benzyl)Gly = O=C(O)CNCc1ccc(Br)cc1; N(tridecyl)Gly = CCCCCCCCCCCCCNCC(=O)O; N(4-F-Bzl)Gly = O=C(O)CNCc1ccc(F)cc1; NBzl(4-I)Gly = O=C(O)CNCc1ccc(I)cc1; Gly(N-2-aminoethyl) = NCCNCC(=O)O; NFurfurylGly = O=C(O)CNCc1ccco1; X1 = CCCCCCCCN(CCCCCCCC)CC(=O)*; Gly(N-cHex) = O=C(O)CNC1CCCCC1; X2 = CCCCCCN(CCCCCC)CC(=O)*; Nphe = O=C(O)CNCc1ccccc1; Nlys = NCCCCNCC(=O)O

What was measured:
C. neoformans [1] = assay: MIC determination, broth microdilution; format: cell-based, Cryptococcus neoformans; conditions: RPMI-MOPS, 72 h at 35 °C, no visual growth, twofold dilutions 200–1.56 μg/mL, biological triplicate
[2] = calculated distribution coefficient at pH 7.4; RMG8-8 parameters from previously published results; cited from earlier work
[3] = tested on: HepG2 hepatocellular carcinoma cells; conditions: human liver cells; RMG8-8 parameters from previously published results; cited from earlier work
C. neoformans [4] = conditions: RMG8-8 parameters from previously published results; cited from earlier work
C. albicans = conditions: cited from earlier work
[5] = result in words; cited from earlier work
fungi = conditions: killed fungi rapidly; cited from earlier work

Row | Structure (SMILES) | C. neoformans MIC (C. neoformans [1]) | further results
1 | CCCCCCCCCCCCCNCC(=O)N(CC(=O)N(CCCC[N+](C)(C)C)CC(=O)N(CC[N+](C)(C)C)CC(=O)N(CC(N)=O)C1CCCCC1)C1CCCCC1 [Compound 1] | 12.5 µg/mL | 
2 | CCCCCCCCN(CCCCCCCC)CC(=O)N(CC(=O)N(CCCCN)CC(=O)N(CCN)CC(=O)N(CC(N)=O)C1CCCCC1)C1CCCCC1 [Compound 7] (X1-[Gly(N-cHex)][Nlys][Gly(N-2-aminoethyl)][Gly(N-cHex)]-NH2) | 6.25 µg/mL | 
3 | CCCCCCCCCCCCCNCC(=O)N(CC(=O)N(CCCCN)CC(=O)N(CCCCN)CC(=O)N(CC(N)=O)C1CCCCC1)C1CCCCC1 [Compound 2] (H-[N(tridecyl)Gly][Gly(N-cHex)][Nlys][Nlys][Gly(N-cHex)]-NH2) | 3.13 µg/mL | 
4 | CCCCCCCCCCCCCNCC(=O)N(CC(=O)N(CCCCN)CC(=O)N(CCN)CC(=O)N(CC(N)=O)C1CCCCC1)C1CCCCC1 [RMG8-8] (H-[N(tridecyl)Gly][Gly(N-cHex)][Nlys][Gly(N-2-aminoethyl)][Gly(N-cHex)]-NH2) |  | cLogD7.4 [2]: –2.38; HepG2 TD50 [3]: 189 µg/mL and 189 ± 43 µg/mL; C. neoformans MIC (C. neoformans [4]): 1.56 µg/mL; C. albicans MIC (C. albicans): 25 µg/mL; proteolytic stability [5]: proteolytically stable; t1/2 of fungal killing (fungi): 6.5 min
5 | CCCCCCCCCCCCCNCC(=O)N(CCc1c[nH]c2ccccc12)CC(=O)N(CCCCN)CC(=O)N(CCN)CC(=O)N(CCc1c[nH]c2ccccc12)CC(N)=O [Compound 23] (H-[N(tridecyl)Gly][Gly(N(CH2)2(3-indolyl))][Nlys][Gly(N-2-aminoethyl)][Gly(N(CH2)2(3-indolyl))]-NH2) | 1.56 to 3.13 µg/mL | 
6 | CCCCCCN(CCCCCC)CC(=O)N(CC(=O)N(CCCCN)CC(=O)N(CCN)CC(=O)N(CC(N)=O)C1CCCCC1)C1CCCCC1 [Compound 6] (X2-[Gly(N-cHex)][Nlys][Gly(N-2-aminoethyl)][Gly(N-cHex)]-NH2) | 100 µg/mL | 
7 | CCCCCCCCCCCCCNCC(=O)N(CC(=O)N(CCCCN)CC(=O)N(CCN)CC(=O)N(CC(N)=O)Cc1ccccc1)Cc1ccccc1 [Compound 15] (H-[N(tridecyl)Gly][Nphe][Nlys][Gly(N-2-aminoethyl)][Nphe]-NH2) | 1.56 to 3.13 µg/mL | 
8 | CCCCCCCCCCCCCNCC(=O)N(CC(=O)N(CCCCN)CC(=O)N(CCN)CC(=O)N(CC(N)=O)Cc1ccco1)Cc1ccco1 [Compound 24] (H-[N(tridecyl)Gly][NFurfurylGly][Nlys][Gly(N-2-aminoethyl)][NFurfurylGly]-NH2) | 3.13 to 6.25 µg/mL | 

Further lines, with some results ahead:

Row | C. neoformans MIC (C. neoformans [1]) | Structure (SMILES) | further results
9 | 1.56 to 3.13 µg/mL | CCCCCCCCCCCCCNCC(=O)N(CC(=O)N(CCCCN)CC(=O)N(CCN)CC(=O)N(CC(N)=O)Cc1ccc(F)cc1)Cc1ccc(F)cc1 [Compound 17] (H-[N(tridecyl)Gly][N(4-F-Bzl)Gly][Nlys][Gly(N-2-aminoethyl)][N(4-F-Bzl)Gly]-NH2) | 
10 | 3.13 µg/mL | CCCCCCCCCCCCCNCC(=O)N(CC(=O)N(CCCCN)CC(=O)N(CCN)CC(=O)N(CC(N)=O)Cc1ccc(Cl)cc1)Cc1ccc(Cl)cc1 [Compound 18] (H-[N(tridecyl)Gly][Gly(Nα-4-Cl-benzyl)][Nlys][Gly(N-2-aminoethyl)][Gly(Nα-4-Cl-benzyl)]-NH2) | 
11 | 6.25 µg/mL | CCCCCCCCCCCCCNCC(=O)N(CC(=O)N(CCCCN)CC(=O)N(CCN)CC(=O)N(CC(N)=O)Cc1ccc(I)cc1)Cc1ccc(I)cc1 [Compound 20] (H-[N(tridecyl)Gly][NBzl(4-I)Gly][Nlys][Gly(N-2-aminoethyl)][NBzl(4-I)Gly]-NH2) | 
12 | 3.13 µg/mL | CCCCCCCCCCCCCNCC(=O)N(CC(=O)N(CCCCN)CC(=O)N(CCN)CC(=O)N(CC(N)=O)Cc1ccc(Br)cc1)Cc1ccc(Br)cc1 [Compound 19] (H-[N(tridecyl)Gly][N(4-Br-benzyl)Gly][Nlys][Gly(N-2-aminoethyl)][N(4-Br-benzyl)Gly]-NH2) | 
